SMILES strings stand for the structures.

In the assay the target is T1, hamster SUR1 (Cricetus cricetus, UniProt Q09427).
T1 construct: expressed in transfected cells; host or cells: COS-1 cells, transient transfection (pcDNA vector), membrane preparation
T1 sequence (Q09427 whole entry): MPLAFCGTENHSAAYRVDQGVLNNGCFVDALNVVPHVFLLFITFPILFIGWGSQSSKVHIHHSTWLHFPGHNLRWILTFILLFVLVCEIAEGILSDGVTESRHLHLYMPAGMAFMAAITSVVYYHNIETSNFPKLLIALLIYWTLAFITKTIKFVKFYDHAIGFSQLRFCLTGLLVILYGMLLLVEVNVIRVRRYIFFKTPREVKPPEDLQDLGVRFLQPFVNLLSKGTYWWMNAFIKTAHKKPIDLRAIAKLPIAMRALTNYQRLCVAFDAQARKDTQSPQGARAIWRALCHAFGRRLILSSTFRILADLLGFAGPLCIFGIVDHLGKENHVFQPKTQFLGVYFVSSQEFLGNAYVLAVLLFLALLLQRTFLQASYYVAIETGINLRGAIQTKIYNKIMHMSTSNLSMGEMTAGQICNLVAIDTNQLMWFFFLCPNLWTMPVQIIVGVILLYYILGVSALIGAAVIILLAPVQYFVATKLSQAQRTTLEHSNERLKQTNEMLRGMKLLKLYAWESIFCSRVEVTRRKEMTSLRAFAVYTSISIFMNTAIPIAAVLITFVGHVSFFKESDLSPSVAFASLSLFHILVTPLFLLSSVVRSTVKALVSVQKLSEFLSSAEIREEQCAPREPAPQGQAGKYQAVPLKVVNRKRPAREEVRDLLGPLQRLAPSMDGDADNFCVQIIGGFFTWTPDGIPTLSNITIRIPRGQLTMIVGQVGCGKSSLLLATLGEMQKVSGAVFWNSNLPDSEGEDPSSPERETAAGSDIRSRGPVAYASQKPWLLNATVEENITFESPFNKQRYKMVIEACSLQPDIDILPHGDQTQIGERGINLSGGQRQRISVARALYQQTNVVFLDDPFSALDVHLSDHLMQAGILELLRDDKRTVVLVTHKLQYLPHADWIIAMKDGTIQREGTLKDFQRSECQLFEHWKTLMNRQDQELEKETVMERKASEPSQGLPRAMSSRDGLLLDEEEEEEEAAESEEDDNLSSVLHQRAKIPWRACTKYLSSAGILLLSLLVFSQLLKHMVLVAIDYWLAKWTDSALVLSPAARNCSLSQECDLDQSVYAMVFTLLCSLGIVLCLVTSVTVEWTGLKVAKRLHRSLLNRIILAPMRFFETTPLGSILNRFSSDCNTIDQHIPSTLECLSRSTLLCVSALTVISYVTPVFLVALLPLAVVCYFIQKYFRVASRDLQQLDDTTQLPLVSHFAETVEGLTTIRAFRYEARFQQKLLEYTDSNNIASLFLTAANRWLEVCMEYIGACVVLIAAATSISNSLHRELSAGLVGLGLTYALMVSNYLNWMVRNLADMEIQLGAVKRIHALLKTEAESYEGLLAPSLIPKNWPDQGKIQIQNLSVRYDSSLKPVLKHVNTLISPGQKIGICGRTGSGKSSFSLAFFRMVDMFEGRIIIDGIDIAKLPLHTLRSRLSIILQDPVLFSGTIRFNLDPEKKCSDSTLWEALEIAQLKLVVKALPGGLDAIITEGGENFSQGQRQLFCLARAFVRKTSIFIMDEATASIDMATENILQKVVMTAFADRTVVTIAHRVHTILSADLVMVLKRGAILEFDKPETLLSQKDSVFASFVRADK
Nature of the assay: Competitive binding to sulfonylurea and KCO sites of SUR1 ([3H]glibenclamide displacement, COS-cell membranes). The following applies: SUR1 versus SUR2 selectivity, in words. The method, then:
Competitive binding experiments were performed to characterize the affinity of the test compounds for the binding sites for sulfonylureas and KATP channel openers (=KCOs) on hamster SUR1. To assess the affinity for the sulfonylurea site membranes from COS-cells transiently expressing hamster SUR1 were incubated in the presence of [^3H]glibenclamide with increasing concentrations of test compounds. […] Per curve 9-15 distinct concentrations were tested covering the relevant range. All measurements were repeated at least 5 times in independent experiments.
[^3H]glibenclamide (specific activity 51 Ci mmol^−1) was obtained from NEN (Dreieich, Germany). If suitable, stock solutions were prepared in dimethylsulfoxide with a final solvent concentration in the media below 1%.
SUR- or Kir6.x isoforms were used either subcloned in the pcDNA (hamster SUR1, mouse Kir6.2) or pCMV vector (rat SUR2A, SUR2B).
For transfection the cells were incubated 4 hours in a Tris-buffered salt solution containing DNA (5-10 μg/ml) plus DEAE-dextran (1 mg/ml), 2 min in HEPES-buffered salt solution plus dimethylsulfoxide (10%) and 4 hours in DMEM-HG plus chloroquine (100 μM). Cells were then returned to DMEM-HG plus 10% FCS. […] For binding experiments resuspended membranes (final protein concentration 5-50 μg/ml) were incubated in “Tris-buffer” (50 mM, pH 7.4) containing either [^3H]glibenclamide (final concentration 0.3 nM or 3 nM and nonspecific binding defined by 100 nM or 1 μM glibenclamide for SUR1 or SUR2Y1205S-isoforms, respectively) or [^3H]P1075 (final concentration 3 nM, nonspecific binding defined by 100 μM pinacidil) and increasing concentrations of the test compounds. […] Incubations were carried out for 1 h at room temperature and were terminated by rapid filtration through Whatman GF/B filters.
The inhibition constant (Ki value) of the test substances was calculated from the respective IC50 value, and was stated as the negative logarithmised value thereof (pKi).
On to `CNC(=NS(=O)(=O)N(C)C)N1CC(c2cccc(F)c2)C(c2ccc(Cl)cc2)=N1` (stereo not drawn) [3-(4-chlorophenyl)-N′-[(dimethyl-amino)sulfonyl]-4-(3-fluorophenyl)-N-methyl-4,5-dihydro-1H-pyrazole-1-carboximidamide], for which the “pki (SUR1) compared with pki (SUR2)” value is given as “pki (SUR1) larger than pki (SUR2)”.

Consider `CCc1c(C(=O)NN2CCCCC2)nc(-c2ccc(Cl)cc2Cl)n1-c1ccc(Br)cc1` [1-(4-bromophenyl)-2-(2,4-dichloro-phenyl)-5-ethyl-N-piperidin-1-yl-1H-imidazole-4-carboxamide], for which the “pki (SUR1) compared with pki (SUR2)” value was “pki (SUR1) larger than pki (SUR2)”. To `CN1CCC(CNC(=NS(=O)(=O)c2ccc(Cl)cc2)N2CC(c3ccccc3)C(c3ccc(Cl)cc3)=N2)C1` (stereo not drawn) [3-(4-chlorophenyl)-N′-[(4-chlorophenyl)sulfonyl]-N-[(1-methylpyrrolidin-3-yl)-methyl]-4-phenyl-4,5-dihydro-1H-pyrazole-1-carboximidamide] belongs “pki (SUR1) larger than pki (SUR2)”; to `CCC1CN=C(N2CC(c3ccccc3)C(c3ccc(Cl)cc3)=N2)O1` (stereo not drawn) [2-[3-(4-chlorophenyl)-4-phenyl-4,5-dihydro-1H-pyrazol-1-yl]-5-ethyl-4,5-dihydro-1,3-oxazole], “pki (SUR1) larger than pki (SUR2)”. Then `CCN(CC)C(=O)c1cn(-c2ccc(Cl)cc2)c(-c2ccc(Cl)cc2Cl)n1` [1-(4-chlorophenyl)-2-(2,4-dichlorophenyl)-N,N-diethyl-1H-imidazole-4-carboxamide], with “pki (SUR1) larger than pki (SUR2)”; and `CNC(=NS(=O)(=O)N1CCOCC1)N1CC(c2ccccc2)C(c2ccc(Cl)cc2)=N1` (stereo not drawn) [3-(4-chlorophenyl)-N-methyl-N′-(morpholin-4-ylsulfonyl)-4-phenyl-4,5-dihydro-1H-pyrazole-1-carboximidamide], with “pki (SUR1) larger than pki (SUR2)”; and `CSc1c(C(=O)NC2CCCCC2)nc(-c2ccc(Cl)cc2Cl)n1-c1ccc(Cl)cc1` [1-(4-chlorophenyl)-N-cyclohexyl-2-(2,4-dichlorophenyl)-5-(methylthio)-1H-imidazole-4-carboxamide], with “pki (SUR1) larger than pki (SUR2)”. To `CCCCCCC(C)(C)c1ccc([C@@H]2C[C@H](O)CC[C@H]2CCCO)c(O)c1` [5-(1,1-dimethylheptyl)-2-[(1R,2R,5R)-5-hydroxy-2-(3-hydroxypropyl)cyclohexyl]-phenol] belongs “pki (SUR1) larger than pki (SUR2)”; to `N[C@@H](Cc1ccc(Cl)c(Cl)c1)C(=O)N1CC(c2ccccc2)C(c2ccc(Cl)cc2)=N1` (stereo partly drawn) [(2S)-1-[3-(4-chlorophenyl)-4-phenyl-4,5-dihydro-1H-pyrazol-1-yl]-3-(3,4-dichloro-phenyl)-1-oxopropan-2-amine], “pki (SUR1) larger than pki (SUR2)”. Turning to `CCCCC(C)(O)c1nc(-c2ccc(Cl)cc2Cl)n(-c2ccc(Cl)cc2)c1C` (stereo not drawn) [2-[1-(4-chlorophenyl)-2-(2,4-dichlorophenyl)-5-methyl-1H-imidazol-4-yl]hexan-2-ol], the “pki (SUR1) compared with pki (SUR2)” value is “pki (SUR1) larger than pki (SUR2)”. To `CS(=O)(=O)C(=C1CN(C(c2ccc(Cl)cc2)c2ccc(Cl)cc2)C1)c1cc(F)cc(F)c1` [1-[bis(4-chlorophenyl)methyl]-3-[(3,5-difluorophenyl)(methylsulfonyl)-methylene]azetidine] belongs “pki (SUR1) larger than pki (SUR2)”. Then `CNC(=NS(=O)(=O)N1CCCCC1)C1=NN(c2ccc(Cl)cc2)C(c2ccccc2)C1` (stereo not drawn) [1-(4-chlorophenyl)-N-methyl-5-phenyl-N′-(piperidin-1-yl-sulfonyl)-4,5-dihydro-1H-pyrazole-3-carboximidamide], with “pki (SUR1) larger than pki (SUR2)”. Then `Cc1c(NC(=O)c2ccccc2)nc(-c2ccc(Cl)cc2Cl)n1-c1ccc(Cl)cc1` [N-[1-(4-chlorophenyl)-2-(2,4-di-chlorophenyl)-5-methyl-1H-imidazol-4-yl]benzamide], with “pki (SUR1) larger than pki (SUR2)”; and `O=C(NS(=O)(=O)c1ccc(Cl)cc1)c1cc(-c2ccc(Br)cc2)n(-c2ccc(Cl)cc2Cl)n1` [5-(4-bromophenyl)-N-[(4-chlorophenyl)sulfonyl]-1-(2,4-dichlorophenyl)-1H-pyrazole-3-carboxamide], with “pki (SUR1) larger than pki (SUR2)”; and `O=C1c2ccccc2S(=O)(=O)N1C1CN(C(c2ccc(Cl)cc2)c2ccc(Cl)cc2)C1` [2-{1-[bis(4-chlorophenyl)methyl]azetidin-3-yl}-1,2-benzisothiazol-3(2H)-one 1,1-dioxide], with “pki (SUR1) larger than pki (SUR2)”. As for `CN(C)S(=O)(=O)N=C(NCCF)N1CC(c2ccccc2)C(c2ccc(Cl)cc2)=N1` (stereo not drawn) [3-(4-chlorophenyl)-N′-[(dimethylamino)sulfonyl]-N-(2-fluoro-ethyl)-4-phenyl4,5-dihydro-1H-pyrazole-1-carboximidamide], the “pki (SUR1) compared with pki (SUR2)” value is “pki (SUR1) larger than pki (SUR2)”. As for `CCCCCNC(=O)c1nc(-c2ccc(Cl)cc2Cl)n(-c2ccc(Br)cc2)c1CC` [1-(4-bromophenyl)-2-(2,4-dichlorophenyl)-5-ethyl-N-pentyl-1H-imidazole-4-carboxamide], the “pki (SUR1) compared with pki (SUR2)” value was “pki (SUR1) larger than pki (SUR2)”.

As for `CNC(=NS(=O)(=O)N1CCOCC1)C1=NN(c2ccc(Cl)cc2Cl)C(c2ccccc2)C1` (stereo not drawn) [1-(2,4-dichlorophenyl)-N-methyl-N′-(morpholin-4-ylsulfonyl)-5-phenyl-4,5-dihydro-1H-pyrazole-3-carboximidamide], the “pki (SUR1) compared with pki (SUR2)” value is reported as “pki (SUR1) larger than pki (SUR2)”. Then `CCCCCc1nc(-c2ccc(Cl)cc2Cl)n(-c2ccc(Cl)cc2)c1C` [1-(4-chlorophenyl)-2-(2,4-dichlorophenyl)-5-methyl-4-pentyl-1H-imidazole], with “pki (SUR1) larger than pki (SUR2)”; and `NC(=NS(=O)(=O)c1ccc(Cl)cc1)N1C[C@H](c2ccccc2)C(c2ccc(Cl)cc2)=N1` [(4S)-3-(4-chlorophenyl)-N′-[(4-chlorophenyl)sulfonyl]-4-phenyl-4,5-dihydro-1H-pyrazole-1-carboximidamide], with “pki (SUR1) larger than pki (SUR2)”. As for `CNC(=NS(=O)(=O)c1ccc(Cl)cc1)N1CC(c2cccnc2)C(c2ccc(Cl)cc2)=N1` (stereo not drawn) [3-(4-chlorophenyl)-N′-[(4-chlorophenyl)sulfonyl]-N-methyl-4-pyridin-3-yl-4,5-dihydro-1H-pyrazole-1-carboximidamide], the “pki (SUR1) compared with pki (SUR2)” value is reported as “pki (SUR1) larger than pki (SUR2)”. `O=C(NN1CCCCC1)c1nn(-c2ccc(Cl)cc2Cl)c2c1CCCc1cc(Cl)ccc1-2` [8-chloro-1-(2,4-dichlorophenyl)-N-piperidin-1-yl-1,4,5,6-tetrahydrobenzo[6,7]cyclohepta[1,2-c]pyrazole-3-carboxamide]: the “pki (SUR1) compared with pki (SUR2)” value is “pki (SUR1) larger than pki (SUR2)”.

For the molecule `NC(=NS(=O)(=O)c1ccc(Cl)cc1)N1CC(c2ccccc2)C(c2ccc(Cl)cc2)=N1` (stereo not drawn) [3-(4-chlorophenyl)-N′-[(4-chlorophenyl)sulfonyl]-4-phenyl-4,5-dihydro-1H-pyrazole-1-carboximidamide], the “pki (SUR1) compared with pki (SUR2)” value is recorded as “pki (SUR1) larger than pki (SUR2)”. Then `O=S(=O)(N=C(NCc1cccnc1)N1CC(c2ccccc2)C(c2ccc(Cl)cc2)=N1)c1ccc(Cl)cc1` (stereo not drawn) [3-(4-chlorophenyl)-N′-[(4-chlorophenyl)sulfonyl]-4-phenyl-N-(pyridin-3-ylmethyl)-4,5-dihydro-1H-pyrazole-1-carboximidamide], with “pki (SUR1) larger than pki (SUR2)”.

Values taken from patent US8058264B2, “Pharmaceutical compositions comprising CB1 cannabinoid receptor antagonists and potassium channel openers for the treatment of obesity and related conditions” (Abbott Products GmbH, priority 2004, dated 2011).
